From patent US20170210723A1, “MOLECULES HAVING PESTICIDAL UTILITY, AND INTERMEDIATES, COMPOSITIONS, AND PROCESSES, RELATED THERETO” (priority 2016, published 2017) come the findings set out here.

As usually defined, the mortality is the percentage killed.

For assay [1], the system named is Cabbage Looper (Trichoplusia ni). Description: Bioassays on CL, 128-well diet tray assay. The format is in vivo. Conditions: Trichoplusia ni, 168 h; 50 μg/cm^2 on artificial diet, second instar larvae, five to seven days; read-out: CL % Control (or Mortality) rating. As for the experimental part: Bioassays on CL were conducted using a 128-well diet tray assay.
One to five second instar CL larvae were placed in each well (3 mL) of the diet tray that had been previously filled with 1 mL of artificial diet to which 50 μg/cm^2 of the test molecule (dissolved in 50 μL of 90:10 acetone-water mixture) had been applied (to each of eight wells) and then allowed to dry. Trays were covered with a clear self-adhesive cover and held at 25° C., 14:10 light-dark for five to seven days. Percent mortality was recorded for the larvae in each well; activity in the eight wells was then averaged. The results are indicated in the table entitled “Table ABC: Biological Results” (See Table Section).
(§1) Bioassays on BAW and CL were conducted according to the procedures outlined in Example A: Bioassays on Beet Armyworm (“BAW”) and Cabbage Looper (“CL”) using the indicated concentrations.

Assay [2] deals with Beet Armyworm (Spodoptera exigua). Description: Bioassays on BAW, 128-well diet tray assay. Type of assay: in vivo. Conditions: Spodoptera exigua, 168 h; 50 μg/cm^2 on artificial diet, second instar larvae, five to seven days; read-out: BAW % Control (or Mortality) rating. As for the experimental part:
Bioassays on BAW were conducted using a 128-well diet tray assay. One to five second instar BAW larvae were placed in each well (3 mL) of the diet tray that had been previously filled with 1 mL of artificial diet to which 50 μg/cm^2 of the test molecule (dissolved in 50 μL of 90:10 acetone-water mixture) had been applied (to each of eight wells) and then allowed to dry. Trays were covered with a clear self-adhesive cover and held at 25° C., 14:10 light-dark for five to seven days. Percent mortality was recorded for the larvae in each well; activity in the eight wells was then averaged. The results are indicated in the table entitled “Table ABC: Biological Results” (See Table Section).
as §1

On to `O=C(NCCS(=O)(=O)c1ccc(Cl)cc1)c1ccc(/C=C/C(c2cc(Cl)c(Cl)c(Cl)c2)C(F)(F)F)cc1Br` (stereo not shown) [F4, (E)-2-Bromo-N-(2-((4-chlorophenyl)sulfonyl)ethyl)-4-(4,4,4-trifluoro-3-(3,4,5-trichlorophenyl)but-1-en-1-yl)benzamide], for which the mortality at 50 µg/cm2 in assay [1] and in assay [2] was 50 to 100% in each case.
Turning to `O=C(NCCS(=O)(=O)CC(F)(F)F)c1ccc(/C=C/C(c2cc(Cl)c(Cl)c(Cl)c2)C(F)(F)F)cc1Br` (stereo not shown) [F10, (E)-2-Bromo-4-(4,4,4-trifluoro-3-(3,4,5-trichlorophenyl)but-1-en-1-yl)-N-(2-((2,2,2-trifluoroethyl)sulfonyl)ethyl)benzamide], the mortality at 50 µg/cm2 in assay [1] and in assay [2] was 50 to 100% in each case.
Consider `CC(C)[C@H](C[S+]([O-])CC(F)(F)F)NC(=O)c1ccc(/C=C/C(c2cc(Cl)c(Cl)c(Cl)c2)C(F)(F)F)cc1C(F)(F)F` (stereo partly drawn) [F15, N-((2R)-3-methyl-1-((2,2,2-trifluoroethyl)sulfinyl)butan-2-yl)-4-((E)-4,4,4-trifluoro-3-(3,4,5-trichlorophenyl)but-1-en-1-yl)-2-(trifluoromethyl)benzamide], for which the mortality at 50 µg/cm2 in assay [1] and in assay [2] was 50 to 100% each time.
On to `CC(C)[C@H](CS(=O)(=O)CC(F)(F)F)NC(=O)c1ccc(/C=C/C(c2cc(Cl)c(Cl)c(Cl)c2)C(F)(F)F)cc1C(F)(F)F` (stereo partly drawn) [F16, N—((R)-3-Methyl-1-((2,2,2-trifluoroethyl)sulfonyl)butan-2-yl)-4-((E)-4,4,4-trifluoro-3-(3,4,5-trichlorophenyl)but-1-en-1-yl)-2-(trifluoromethyl)benzamide], for which the mortality at 50 µg/cm2 in assay [1] and in assay [2] was 50 to 100% each time.
For `CC[C@H](CS(=O)(=O)CC(F)(F)F)NC(=O)c1ccc(/C=C/C(c2cc(Cl)c(Cl)c(Cl)c2)C(F)(F)F)cc1C(F)(F)F` (stereo partly drawn) [F17, 4-((E)-4,4,4-Trifluoro-3-(3,4,5-trichlorophenyl)but-1-en-1-yl)-N—((R)-1-((2,2,2-trifluoroethyl)sulfonyl)butan-2-yl)-2-(trifluoromethyl)benzamide], the mortality at 50 µg/cm2 in assay [1] and in assay [2] was 50 to 100% in each case.
For `CC[C@H](C[S+]([O-])CC(F)(F)F)NC(=O)c1ccc(/C=C/C(c2cc(Cl)c(Cl)c(Cl)c2)C(F)(F)F)cc1C(F)(F)F` (stereo partly drawn) [F18, 4-((E)-4,4,4-Trifluoro-3-(3,4,5-trichlorophenyl)but-1-en-1-yl)-N-((2R)-1-((2,2,2-trifluoroethyl)sulfinyl)butan-2-yl)-2-(trifluoromethyl)benzamide], the mortality at 50 µg/cm2 in assay [1] and in assay [2] was 50 to 100% each time.
As for `CC[C@H](CS(=O)(=O)CC1CC1(F)F)NC(=O)c1ccc(/C=C/C(c2cc(Cl)c(Cl)c(Cl)c2)C(F)(F)F)cc1Br` (stereo partly drawn) [F19, 2-Bromo-N-((2R)-1-(((2,2-difluorocyclopropyl)methyl)sulfonyl)butan-2-yl)-4-((E)-4,4,4-trifluoro-3-(3,4,5-trichlorophenyl)but-1-en-1-yl)benzamide], the mortality at 50 µg/cm2 in assay [1] and in assay [2] was 50 to 100% each time.
As for `C[C@H](C[S+]([O-])CC(F)(F)F)NC(=O)c1ccc(/C=C/C(c2cc(Cl)c(Cl)c(Cl)c2)C(F)(F)F)cc1C(F)(F)F` (stereo partly drawn) [F23, 4-((E)-4,4,4-Trifluoro-3-(3,4,5-trichlorophenyl)but-1-en-1-yl)-N-((2R)-1-((2,2,2-trifluoroethyl)sulfinyl)propan-2-yl)-2-(trifluoromethyl)benzamide], the mortality at 50 µg/cm2 in assay [1] and in assay [2] was 50 to 100% each time.
On to `CCO/C(=C\C(c1cc(Cl)c(Cl)c(Cl)c1)C(F)(F)F)c1ccc(C(=O)N[C@H](C)CSCC(F)(F)F)c(C(F)(F)F)c1` (stereo partly drawn) [F29, 4-((Z)-1-ethoxy-4,4,4-trifluoro-3-(3,4,5-trichlorophenyl)but-1-en-1-yl)-N—((R)-1-((2,2,2-trifluoroethyl)thio)propan-2-yl)-2-(trifluoromethyl)benzamide], for which the mortality at 50 µg/cm2 in assay [1] is 0%; in assay [2] it was 50 to 100%.
`CCO/C(=C\C(c1cc(Cl)c(Cl)c(Cl)c1)C(F)(F)F)c1ccc(C(=O)N[C@H](C)C[S+]([O-])CC(F)(F)F)c(C(F)(F)F)c1` (stereo partly drawn) [F30, 4-((Z)-1-ethoxy-4,4,4-trifluoro-3-(3,4,5-trichlorophenyl)but-1-en-1-yl)-N-((2R)-1-((2,2,2-trifluoroethyl)sulfinyl)propan-2-yl)-2-(trifluoromethyl)benzamide]: the mortality at 50 µg/cm2 in assay [1] and in assay [2] was 50 to 100% in each case.
With `CO/C(=C\C(c1cc(Cl)c(Cl)c(Cl)c1)C(F)(F)F)c1ccc(C(=O)N[C@H](C)CSCC(F)(F)F)c(C(F)(F)F)c1` (stereo partly drawn) [F31, 4-((Z)-4,4,4-Trifluoro-1-methoxy-3-(3,4,5-trichlorophenyl)but-1-en-1-yl)-N—((R)-1-((2,2,2-trifluoroethyl)thio)propan-2-yl)-2-(trifluoromethyl)benzamide], the mortality at 50 µg/cm2 in assay [1] and in assay [2] was 50 to 100% in each case.
As to `C[C@H](CSCC(F)(F)F)NC(=O)c1ccc(/C=C/C(c2cc(Cl)c(Cl)c(Cl)c2)C(F)(F)F)cc1C(F)F` (stereo partly drawn) [F32, 2-(Difluoromethyl)-4-((E)-4,4,4-trifluoro-3-(3,4,5-trichlorophenyl)but-1-en-1-yl)-N—((R)-1-((2,2,2-trifluoroethyl)thio)propan-2-yl)benzamide], the mortality at 50 µg/cm2 in assay [1] and in assay [2] was 50 to 100% each time.
Regarding `CCO/C(=C/C(c1cc(Cl)c(Cl)c(Cl)c1)C(F)(F)F)c1ccc(C(=O)N[C@H](C)CSCC(F)(F)F)c(C(F)(F)F)c1` (stereo partly drawn) [F33, 4-((E)-1-ethoxy-4,4,4-trifluoro-3-(3,4,5-trichlorophenyl)but-1-en-1-yl)-N—((R)-1-((2,2,2-trifluoroethyl)thio)propan-2-yl)-2-(trifluoromethyl)benzamide], the mortality at 50 µg/cm2 in assay [1] and in assay [2] was 50 to 100% throughout.
Consider `C[C@H](CS(=O)(=O)CC(F)(F)F)NC(=O)c1ccc(/C=C/C(c2cc(Cl)c(Cl)c(Cl)c2)C(F)(F)F)cc1C(F)F` (stereo partly drawn) [F43, 2-(Difluoromethyl)-4-((E)-4,4,4-trifluoro-3-(3,4,5-trichlorophenyl)but-1-en-1-yl)-N—((R)-1-((2,2,2-trifluoroethyl)sulfonyl)propan-2-yl)benzamide], for which the mortality at 50 µg/cm2 in assay [1] and in assay [2] was 50 to 100% in each case.
As for `CC(C)(C[S+]([O-])CC(F)(F)F)NC(=O)c1ccc(/C=C/C(c2cc(Cl)c(Cl)c(Cl)c2)C(F)(F)F)cc1C(F)(F)F` (stereo not shown) [F47, (E)-N-(2-Methyl-1-((2,2,2-trifluoroethyl)sulfinyl)propan-2-yl)-4-(4,4,4-trifluoro-3-(3,4,5-trichlorophenyl)but-1-en-1-yl)-2-(trifluoromethyl)benzamide], the mortality at 50 µg/cm2 in assay [1] and in assay [2] was 50 to 100% throughout.
For the molecule `CCc1cc(/C=C/C(c2cc(Cl)c(Cl)c(Cl)c2)C(F)(F)F)ccc1C(=O)N[C@H](C)C[S+]([O-])CC(F)(F)F` (stereo partly drawn) [F55, 2-Ethyl-4-((E)-4,4,4-trifluoro-3-(3,4,5-trichlorophenyl)but-1-en-1-yl)-N-((2R)-1-((2,2,2-trifluoroethyl)sulfinyl)propan-2-yl)benzamide], the mortality at 50 µg/cm2 in assay [1] and in assay [2] was 50 to 100% throughout.
`C[C@H](CSCC(F)(F)F)NC(=O)c1ccc(/C=C/C(c2cc(Cl)c3c(c2)OCO3)C(F)(F)F)cc1C(F)(F)F` (stereo partly drawn) [F75, 4-((E)-3-(7-Chlorobenzo[d][1,3]dioxol-5-yl)-4,4,4-trifluorobut-1-en-1-yl)-N—((R)-1-((2,2,2-trifluoroethyl)thio)propan-2-yl)-2-(trifluoromethyl)benzamide]: the mortality at 50 µg/cm2 in assay [1] and in assay [2] was 50 to 100% each time.
For the molecule `C[C@H](CS(=O)(=O)CC(F)(F)F)NC(=O)c1ccc(/C=C/C(c2cc(Cl)c3c(c2)OCO3)C(F)(F)F)cc1C(F)(F)F` (stereo partly drawn) [F76, 4-((E)-3-(7-Chlorobenzo[d][1,3]dioxol-5-yl)-4,4,4-trifluorobut-1-en-1-yl)-N—((R)-1-((2,2,2-trifluoroethyl)sulfonyl)propan-2-yl)-2-(trifluoromethyl)benzamide], the mortality at 50 µg/cm2 in assay [1] and in assay [2] was 50 to 100% in each case.
For the molecule `CCCS(=O)(=O)C[C@@H](C)NC(=O)c1ccc(/C=C/C(c2cc(Cl)c(Cl)c(Cl)c2)C(F)(F)F)cc1C(F)(F)F` (stereo partly drawn) [F79, N—((R)-1-(Propylsulfonyl)propan-2-yl)-4-((E)-4,4,4-trifluoro-3-(3,4,5-trichlorophenyl)but-1-en-1-yl)-2-(trifluoromethyl)benzamide], the mortality at 50 µg/cm2 in assay [1] and in assay [2] was 50 to 100% throughout.
`CC(C)S(=O)(=O)C[C@@H](C)NC(=O)c1ccc(/C=C/C(c2cc(Cl)c(Cl)c(Cl)c2)C(F)(F)F)cc1C(F)(F)F` (stereo partly drawn) [F80, N—((R)-1-(Isopropylsulfonyl)propan-2-yl)-4-((E)-4,4,4-trifluoro-3-(3,4,5-trichlorophenyl)but-1-en-1-yl)-2-(trifluoromethyl)benzamide]: the mortality at 50 µg/cm2 in assay [1] and in assay [2] was 50 to 100% in each case.
